Data taken from PMC10447463, “Data-mining unveils structure–property–activity correlation of viral infectivity enhancing self-assembling peptides” (Nature Communications, 2023).
Read-outs that look alike come from different tables or passages of the source.

Key:
[1] = β-sheet content by ATR-FT-IR; format: physicochemical; details: ATR-FT-IR
Outline: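 ATR FT-IR, diamond crystal, 64 scans, 2 cm^-1, on freeze-dried 1 mg/mL PNF; β-sheet per prior calculation. Fluorescamine CR: 3 kDa filter, DMSO redissolution, 20 min RT, ex 365/em 470 nm; values as n-fold enhancement over DMSO (set to 1).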

[2] = Zeta-potential measurement; format: physicochemical; details: for Zeta-pot. / mV: zeta potential of peptide, Fig S15 source data
Outline: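 Charge on peptide aggregates was assessed by electrophoretic mobility in 1 mM KCl, converted per Smoluchowski. Prior aggregation: 1 mg/mL, pH 7.4 PBS, 1 d, RT.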

[3] = system: HIV-1 infection of TZM-bl cells; assay: HIV-1 infectivity enhancement assay, β-galactosidase luminescence; format: cell-based; details: for Log10 Inf. rel. to EF-C: log10 of HIV-1 infection of TZM-bl cells relative to EF-C, Fig S15 source data, asymmetric std dev errors
[4] = format: physicochemical; details: STD prep
[5] = Feb2021, Log10 of infectivity relative to EF-C
[6] = infectivity class (low / medium / high) of each library peptide, main list in c1-c6, same classes repeated in sub-lists of sequences containing the hydrophobicity/charge patterns P+,H0,P+,H0,P0,H0,P0, P+,H0,P0,H0,P0,H0,P0, P+,H0,P0,H0
[7] = infectivity class (low / medium / high) of the peptide in the sequence-pattern analysis, Fig. S22-A4, class limits not given
[8] = Feb2021, 1.3 µM value relative to virus only (0 µM)
[9] = Feb2021, n-fold enhancement relative to EF-C
[10] = Feb2021, n-fold infectivity relative to EF-C
[11] = Feb2021, unrounded values of the 1.3 µM column
[12] = Feb2021 run, infectivity n-fold relative to virus alone
[13] = Feb2021 run, log10 of infectivity relative to EF-C
[14] = Feb2021 run, n-fold infectivity relative to EF-C
[15] = Feb2021, figures match the 1.3 µM column
[16] = Feb2021, infectivity relative to virus only

Sequence	Zeta Pot. / mV ([2]; mean, Std Zeta in next column)	Zeta-pot. / mV [2]	Log10 of Rel to EFC (Feb2021) [3, 5]	infectivity [3, 6]	infectivity [3, 7]	Log10 Inf. rel. to EF-C [3]	Zeta category ( +1 = if > 4 mV;-1 = if < -4 mV; 0 = -4mV to 4 mV) [2]	Zeta category ( +1 = if > 4 mV;-1 = if < -4 mV; 0 = -4mV to 4 mV) ([2]; category from zeta potential)	Zeta Pot. / mV ([2]; mean, Std in separate column)	TEM: 1= fibrils, 0= aggregates (micelle), 0.5 = aggregates and fibrils, -1 = nothing obersved, STD prep [4]	n-fold to virus (Feb2021) [3, 8]	Rel-to EFC (Feb-2021) [3, 9]	Rel-to EFC (Feb-2021) [3, 10]	Absolute Infectivity / RLU /s (Feb2021) [3, 11]	n-fold to virus (Feb2021) [3, 12]	Log10 of Rel to EFC (Feb2021) [3, 13]	Rel-to EFC (Feb-2021) [3, 14]	also measured
CKFKFQFW [TM72]	15.2 mV	15.2 mV	-0.05512	high	high	-0.05512	–	–	–	–	–	–	–	–	–	–	–	FTIR ß-sheet content/ % [1]: 43%; Zeta category ( +1 = if > 4 mV;-1 = if < -4 mV; 0 = -4mV to 4 mV) ([2]; category derived from the zeta potential): 1 (+1 = if > 4 mV); Rel-to EFC (Feb-2021) ([3]; Feb2021, infectivity enhancement relative to EF-C): 0.8808; Rel-to EFC ([3]; Fig S8 panels B, D, infectivity enhancement relative to EF-C): 0.8808; n-fold to virus ([3]; Fig S8 panels B, D, infectivity n-fold relative to virus alone): 37.01
QCKFKFQF [CK9]	12.2 mV	12.2 mV	-0.1152	–	high	-0.1152	1 (+1 = if > 4 mV)	1 (+1 = if > 4 mV)	12.2 mV	1	32.23	0.767	0.767	20303.33333 RLU /s	32.23	-0.1152	0.767	–
QCKFKFQFNM [CK8]	15.7 mV	15.7 mV	-0.2906	medium	–	-0.2906	1 (+1 = if > 4 mV)	1 (+1 = if > 4 mV)	15.7 mV	1	21.52	0.5121	0.5121	16353.33333 RLU /s	21.52	-0.2906	0.5121	–
QCKIKIQI [CK3]	9.52 mV	9.52 mV	-0.9508	medium	–	-0.9508	1 (+1 = if > 4 mV)	1 (+1 = if > 4 mV)	9.52 mV	1	4.706	0.112	0.112	3577 RLU /s	4.706	-0.9508	0.112	–
QCKIKIQINM [CK2]	11.37 mV	11.37 mV	-0.4024	medium	–	-0.4024	1 (+1 = if > 4 mV)	1 (+1 = if > 4 mV)	11.37 mV	1	16.64	0.3959	0.3959	15250 RLU /s	16.64	-0.4024	0.3959	–
QCKIKQII [CK6]	11 mV	11 mV	-2.189	low	–	-2.189	1 (+1 = if > 4 mV)	1 (+1 = if > 4 mV)	11 mV	1	–	0.006472	0.006472	–	0.2719	-2.189	0.006472	Zeta Pot. / mV [2]: 11 mV; Absolute Infectivity / RLU /s (Feb2021) [3, 15]: 206.7 RLU /s; n-fold to virus (Feb2021) [3, 16]: 0.2719
QCKIKQIINM [CK5]	10.4 mV	10.4 mV	-0.4555	medium	–	-0.4555	1 (+1 = if > 4 mV)	1 (+1 = if > 4 mV)	10.4 mV	1	–	0.3503	0.3503	–	14.72	-0.4555	0.3503	Zeta Pot. / mV [2]: 10.4 mV; Absolute Infectivity / RLU /s (Feb2021) [3, 15]: 11186.66667 RLU /s; n-fold to virus (Feb2021) [3, 16]: 14.72
RGDCKIKIQINM [TM45]	11.3 mV	11.3 mV	-0.6272	medium	–	-0.6272	1 (+1 = if > 4 mV)	1 (+1 = if > 4 mV)	11.3 mV	1	–	0.2359	–	–	9.913	-0.6272	0.2359	–
RGDKIKIQI [MG14]	-0.899 mV	-0.899 mV	-1.805	low	–	-1.805	0 (0 = -4mV to 4 mV)	0 (0 = -4mV to 4 mV)	-0.899 mV	1	–	0.01566	–	–	0.6579	-1.805	0.01566	–
RGDKIKIQIC [MG7/CN1]	16.5 mV	16.5 mV	-0.07993	–	high	-0.07993	1 (+1 = if > 4 mV)	1 (+1 = if > 4 mV)	16.5 mV	1	–	0.8319	–	–	34.95	-0.07993	0.8319	–
